Source: US20240368177A1, “5-AMINO-6,8-DIHYDRO-1H-FURO[3,4-d]PYRROLO[3,2-b]PYRIDINE-2-CARBOXAMIDE DERIVATIVES AS MTA-COOPERATIVE INHIBITORS OF PRMT5” (BeiGene Switzerland GmbH, priority 2023, published 2024)

Tests used:
HCT116-MTAP-KO = test: Cell killing in HCT116 isogenic pair (Cell Titer-Glo viability), MTAP knock-out cells; format: cell-based, human; conditions: Homo sapiens, HCT-116, 144 h, 6 days incubation, 0-10 μM, * = more than 50% viability inhibition at tested concentration without a full curve
Outline: (§1)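 HCT116 MTAP-knockout or mock-knockout (MTAP wildtype) cells in RPMI 1640 with 10% FBS were seeded overnight, then exposed to test compound at 0–10 μM final for 6 days at 37° C. Viability was measured by CellTiter-Glo luminescence and IC50 was fitted.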

HCT116-mock-RNA-KO = test: Cell killing in HCT116 isogenic pair (Cell Titer-Glo viability), mock knock-out cells with MTAP wildtype genotype; format: cell-based, human; conditions: Homo sapiens, HCT-116, 144 h, 6 days incubation, 0-10 μM
Outline: as §1

SMILES	IC50 (HCT116-MTAP-KO) [nM]	IC50 (HCT116-mock-RNA-KO) [nM]
CN(C(=O)c1cc2nc(N)c3c(c2[nH]1)COC3)[C@@H]1COCc2cc(Br)cc(F)c21 [Example 96, (S)-5-amino-N-(7-bromo-5-fluoroisochroman-4-yl)-N-methyl-6,8-dihydro-1H-furo[3,4-d]pyrrolo[3,2-b]pyridine-2-carboxamide]	7.2	1930
CN(C(=O)c1cc2nc(N)c3c(c2[nH]1)COC3)[C@@H]1COCc2cc(C#N)cc(F)c21 [Example 97, (S)-5-amino-N-(7-cyano-5-fluoroisochroman-4-yl)-N-methyl-6,8-dihydro-1H-furo[3,4-d]pyrrolo[3,2-b]pyridine-2-carboxamide]	17	2890
CC(=O)N1Cc2cc(C(F)(F)F)ccc2[C@H](N(C)C(=O)c2cc3nc(N)c4c(c3[nH]2)COC4)C1 [Example 98, (S)—N-(2-acetyl-7-(trifluoromethyl)-1,2,3,4-tetrahydroisoquinolin-4-yl)-5-amino-N-methyl-6,8-dihydro-1H-furo[3,4-d]pyrrolo[3,2-b]pyridine-2-carboxamide]	11	1860
CC(=O)N1Cc2cc(C(F)(F)F)ccc2[C@@H](N(C)C(=O)c2cc3nc(N)c4c(c3[nH]2)COC4)C1 [Example 99, (R)—N-(2-acetyl-7-(trifluoromethyl)-1,2,3,4-tetrahydroisoquinolin-4-yl)-5-amino-N-methyl-6,8-dihydro-1H-furo[3,4-d]pyrrolo[3,2-b]pyridine-2-carboxamide]	722	> 10000
CN(C(=O)c1cc2nc(N)c3c(c2[nH]1)COC3)[C@@H]1CN(C(=O)C2CC2)Cc2cc(C(F)(F)F)ccc21 [Example 100, (S)-5-amino-N-(2-(cyclopropanecarbonyl)-7-(trifluoromethyl)-1,2,3,4-tetrahydroisoquinolin-4-yl)-N-methyl-6,8-dihydro-1H-furo[3,4-d]pyrrolo[3,2-b]pyridine-2-carboxamide]	1.4	136
CN(C(=O)c1cc2nc(N)c3c(c2[nH]1)COC3)[C@H]1CN(C(=O)C2CC2)Cc2cc(C(F)(F)F)ccc21 [Example 101, (R)-5-amino-N-(2-(cyclopropanecarbonyl)-7-(trifluoromethyl)-1,2,3,4-tetrahydroisoquinolin-4-yl)-N-methyl-6,8-dihydro-1H-furo[3,4-d]pyrrolo[3,2-b]pyridine-2-carboxamide]	339	2090
CC(C)C(=O)N1Cc2cc(C(F)(F)F)ccc2[C@H](N(C)C(=O)c2cc3nc(N)c4c(c3[nH]2)COC4)C1 [Example 102, (S)-5-amino-N-(2-isobutyryl-7-(trifluoromethyl)-1,2,3,4-tetrahydroisoquinolin-4-yl)-N-methyl-6,8-dihydro-1H-furo[3,4-d]pyrrolo[3,2-b]pyridine-2-carboxamide]	1.1	77
CC(C)C(=O)N1Cc2cc(C(F)(F)F)ccc2[C@@H](N(C)C(=O)c2cc3nc(N)c4c(c3[nH]2)COC4)C1 [Example 103, (R)-5-amino-N-(2-isobutyryl-7-(trifluoromethyl)-1,2,3,4-tetrahydroisoquinolin-4-yl)-N-methyl-6,8-dihydro-1H-furo[3,4-d]pyrrolo[3,2-b]pyridine-2-carboxamide]	272	2450
CN(C(=O)c1cc2nc(N)c3c(c2[nH]1)COC3)[C@@H]1COCc2cc(-c3cccnc3)ccc21 [Example 104, (S)-5-amino-N-methyl-N-(7-(pyridin-3-yl)isochroman-4-yl)-6,8-dihydro-1H-furo[3,4-d]pyrrolo[3,2-b]pyridine-2-carboxamide]	18	2730
CCC(CC)N(Cc1c(F)cc(C2CC2)cc1F)C(=O)c1cc2nc(N)c3c(c2[nH]1)COC3 [Example 105, 5-amino-N-(4-cyclopropyl-2,6-difluorobenzyl)-N-(pentan-3-yl)-6,8-dihydro-1H-furo[3,4-d]pyrrolo[3,2-b]pyridine-2-carboxamide]	13	930
CC(C)N(Cc1ccc(C2CC2)cn1)C(=O)c1cc2nc(N)c3c(c2[nH]1)CO[C@@H]3C [Example 106, (R)-5-amino-N-((5-cyclopropylpyridin-2-yl)methyl)-N-isopropyl-6-methyl-6,8-dihydro-1H-furo[3,4-d]pyrrolo[3,2-b]pyridine-2-carboxamide]	11	2630
CC[C@@H](C)N(Cc1ccc(C2CCC2)cn1)C(=O)c1cc2nc(N)c3c(c2[nH]1)COC3 [Example 107, (R)-5-amino-N-(sec-butyl)-N-((5-cyclobutylpyridin-2-yl)methyl)-6,8-dihydro-1H-furo[3,4-d]pyrrolo[3,2-b]pyridine-2-carboxamide]	20	1090
CC[C@@H](C)N(Cc1ccc(C2CC2)c(C)n1)C(=O)c1cc2nc(N)c3c(c2[nH]1)COC3 [Example 108, (R)-5-amino-N-(sec-butyl)-N-((5-cyclopropyl-6-methylpyridin-2-yl)methyl)-6,8-dihydro-1H-furo[3,4-d]pyrrolo[3,2-b]pyridine-2-carboxamide]	31	3420
CCC(CC)N(Cc1cc(C)c(C2CC2)cn1)C(=O)c1cc2nc(N)c3c(c2[nH]1)COC3 [Example 109, 5-amino-N-((5-cyclopropyl-4-methylpyridin-2-yl)methyl)-N-(pentan-3-yl)-6,8-dihydro-1H-furo[3,4-d]pyrrolo[3,2-b]pyridine-2-carboxamide]	24	1790
CCN(C(=O)c1cc2nc(N)c3c(c2[nH]1)COC3)[C@H](C)c1ncc(C(F)(F)F)cc1F [Example 110, (R)-5-amino-N-ethyl-N-(1-(3-fluoro-5-(trifluoromethyl)pyridin-2-yl)ethyl)-6,8-dihydro-1H-furo[3,4-d]pyrrolo[3,2-b]pyridine-2-carboxamide]	12	2490
CCN(C(=O)c1cc2nc(N)c3c(c2[nH]1)COC3)[C@@H](C)c1ncc(C(F)(F)F)cc1F [Example 111, (S)-5-amino-N-ethyl-N-(1-(3-fluoro-5-(trifluoromethyl)pyridin-2-yl)ethyl)-6,8-dihydro-1H-furo[3,4-d]pyrrolo[3,2-b]pyridine-2-carboxamide]	2200	> 10000
CCN(C(=O)c1cc2nc(N)c3c(c2[nH]1)COC3)[C@H](C)c1ccc(C2CC2)cn1 [Example 112, (R)-5-amino-N-(1-(5-cyclopropylpyridin-2-yl)ethyl)-N-ethyl-6,8-dihydro-1H-furo[3,4-d]pyrrolo[3,2-b]pyridine-2-carboxamide]	59	> 10000
CCN(C(=O)c1cc2nc(N)c3c(c2[nH]1)COC3)[C@@H](C)c1ccc(C2CC2)cn1 [Example 113, (S)-5-amino-N-(1-(5-cyclopropylpyridin-2-yl)ethyl)-N-ethyl-6,8-dihydro-1H-furo[3,4-d]pyrrolo[3,2-b]pyridine-2-carboxamide]	1610	> 10000
CCN(C(=O)c1cc2nc(N)c3c(c2[nH]1)COC3)[C@@H](C)c1ccc(C(F)(F)F)cn1 [Example 114, (S)-5-amino-N-ethyl-N-(1-(5-(trifluoromethyl)pyridin-2-yl)ethyl)-6,8-dihydro-1H-furo[3,4-d]pyrrolo[3,2-b]pyridine-2-carboxamide]	3630	> 10000
